Measurements as given in ChEMBL document CHEMBL1201861, “Genomics of Drug Sensitity in Cancer screening data, Wellcome Trust Sanger Institute”.

Legend:
Experiment in all cases: cells
Details in all cases: Homo sapiens
ES7 = format: functional, cell-based;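 also: growth inhibition of cultured human ES7 cells, read out as cell viability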
Description: SANGER: Inhibition of human ES7 cell growth in a cell viability assay.

NB69 = format: functional, cell-based;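 also: growth inhibition of NB69 cells, determined by a cell viability assay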
Description: SANGER: Inhibition of human NB69 cell growth in a cell viability assay.

OS-RC-2 = format: functional, cell-based;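 also: growth inhibition of human OS-RC-2 cells, measured by a cell viability assay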
Description: SANGER: Inhibition of human OS-RC-2 cell growth in a cell viability assay.

CW-2 = format: functional, cell-based;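 also: growth inhibition of CW-2 cells, read out by a cell viability assay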
Description: SANGER: Inhibition of human CW-2 cell growth in a cell viability assay.

SJSA-1 = format: functional, cell-based;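 also: growth inhibition of human SJSA-1 cells, read out through a cell viability measurement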
Description: SANGER: Inhibition of human SJSA-1 cell growth in a cell viability assay.

K5 = format: functional, cell-based
Description: SANGER: Inhibition of human K5 cell growth in a cell viability assay.

NMC-G1 = format: functional, cell-based;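 also: growth inhibition of the NMC-G1 cell line, measured with a cell viability read-out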
Description: SANGER: Inhibition of human NMC-G1 cell growth in a cell viability assay.

HCE-4 = format: functional, cell-based;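 also: cell viability assay measuring inhibition of growth in the human HCE-4 cell line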
Description: SANGER: Inhibition of human HCE-4 cell growth in a cell viability assay.

BB30-HNC = format: functional, cell-based;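 also: growth inhibition of the cultured cell line, read out by a cell viability assay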
Description: SANGER: Inhibition of human BB30-HNC cell growth in a cell viability assay.

BB65-RCC = format: functional, cell-based;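 also: growth inhibition of the cell line, measured with a cell viability assay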
Description: SANGER: Inhibition of human BB65-RCC cell growth in a cell viability assay.

NH-12 = format: functional, cell-based;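 also: growth inhibition of NH-12 cells, read out with a cell viability assay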
Description: SANGER: Inhibition of human NH-12 cell growth in a cell viability assay.

LU-139 = format: functional, cell-based
Description: SANGER: Inhibition of human LU-139 cell growth in a cell viability assay.

TE-1 = format: functional, cell-based
Description: SANGER: Inhibition of human TE-1 cell growth in a cell viability assay.

COLO-668 = format: functional, cell-based
Description: SANGER: Inhibition of human COLO-668 cell growth in a cell viability assay.

CAS-1 = format: functional, cell-based;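 also: growth inhibition of CAS-1 cells, measured with a cell viability assay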
Description: SANGER: Inhibition of human CAS-1 cell growth in a cell viability assay.

QIMR-WIL = format: functional, cell-based;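 also: growth inhibition of QIMR-WIL cells, read out with a cell viability assay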
Description: SANGER: Inhibition of human QIMR-WIL cell growth in a cell viability assay.

EW-16 = format: functional, cell-based;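 also: growth inhibition of human EW-16 cells, read out as cell viability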
Description: SANGER: Inhibition of human EW-16 cell growth in a cell viability assay.

NCI-H2126 = format: functional, cell-based;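 also: growth inhibition of the cancer cell line, determined with a cell viability readout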
Description: SANGER: Inhibition of human NCI-H2126 cell growth in a cell viability assay.

LS-123 = format: functional, cell-based
Description: SANGER: Inhibition of human LS-123 cell growth in a cell viability assay.

KM12 = format: functional, cell-based;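 also: KM12 cell growth inhibition, read out with a cell viability assay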
Description: SANGER: Inhibition of human KM12 cell growth in a cell viability assay.

LB2241-RCC = format: functional, cell-based;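 also: cell viability assay measuring how strongly the cultured human renal carcinoma line is prevented from growing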
Description: SANGER: Inhibition of human LB2241-RCC cell growth in a cell viability assay.

HCE-T = format: functional, cell-based;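 also: cell viability assay read-out, reporting inhibition of HCE-T cell growth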
Description: SANGER: Inhibition of human HCE-T cell growth in a cell viability assay.

KGN = format: functional, cell-based;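 also: growth inhibition of KGN cells, read out with a cell viability assay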
Description: SANGER: Inhibition of human KGN cell growth in a cell viability assay.

LC-2-ad = format: functional, cell-based;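 also: growth inhibition of human LC-2-ad cells, read out with a cell viability assay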
Description: SANGER: Inhibition of human LC-2-ad cell growth in a cell viability assay.

TE-11 = format: functional, cell-based;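 also: growth inhibition of human TE-11 cells, read out by a cell viability assay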
Description: SANGER: Inhibition of human TE-11 cell growth in a cell viability assay.

SW684 = format: functional, cell-based;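 also: growth inhibition of human SW684 cells, measured by a cell viability assay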
Description: SANGER: Inhibition of human SW684 cell growth in a cell viability assay.

MFH-ino = format: functional, cell-based;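 also: growth inhibition of human MFH-ino cells, read out by a cell viability assay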
Description: SANGER: Inhibition of human MFH-ino cell growth in a cell viability assay.

LB771-HNC = format: functional, cell-based;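 also: growth inhibition of LB771-HNC human cells, read out with a cell viability assay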
Description: SANGER: Inhibition of human LB771-HNC cell growth in a cell viability assay.

P30-OHK = format: functional, cell-based;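 also: growth inhibition of the P30-OHK cell line, read out with a cell viability assay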
Description: SANGER: Inhibition of human P30-OHK cell growth in a cell viability assay.

SNU-5 = format: functional, cell-based;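 also: cell viability readout used to measure growth inhibition in human NCI-SNU-5 cells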
Description: SANGER: Inhibition of human NCI-SNU-5 cell growth in a cell viability assay.

EW-1 = format: functional, cell-based
Description: SANGER: Inhibition of human EW-1 cell growth in a cell viability assay.

COR-L88 = format: functional, cell-based;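 also: growth inhibition of COR-L88 cells, read out with a cell viability assay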
Description: SANGER: Inhibition of human COR-L88 cell growth in a cell viability assay.

EM-2 = format: functional, cell-based;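 also: growth inhibition of EM-2 cells, read out with a cell viability assay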
Description: SANGER: Inhibition of human EM-2 cell growth in a cell viability assay.

NCI-H226 = format: functional, cell-based;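 also: cell viability read-out used to gauge growth inhibition of the cells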
Description: SANGER: Inhibition of human NCI-H226 cell growth in a cell viability assay.

A3-KAW = format: functional, cell-based;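 also: growth inhibition of human A3-KAW cells, read out with a cell viability assay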
Description: SANGER: Inhibition of human A3-KAW cell growth in a cell viability assay.

COLO-829 = format: functional, cell-based
Description: SANGER: Inhibition of human COLO-829 cell growth in a cell viability assay.

SW872 = format: functional, cell-based;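 also: growth inhibition of SW872 cells, read out by a viability assay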
Description: SANGER: Inhibition of human SW872 cell growth in a cell viability assay.

ALL-PO = format: functional, cell-based;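 also: growth inhibition of ALL-PO cells, read out by a cell viability assay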
Description: SANGER: Inhibition of human ALL-PO cell growth in a cell viability assay.

EW-18 = format: functional, cell-based;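 also: growth inhibition of EW-18 cells, read out by a cell viability assay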
Description: SANGER: Inhibition of human EW-18 cell growth in a cell viability assay.

SF-539 = format: functional, cell-based;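 also: Read-out is a cell viability assay, with IC50 reflecting inhibition of cell growth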
Description: SANGER: Inhibition of human SF539 cell growth in a cell viability assay.

D283 Med = format: functional, cell-based
Description: SANGER: Inhibition of human D-283MED cell growth in a cell viability assay.

LS-1034 = format: functional, cell-based
Description: SANGER: Inhibition of human LS-1034 cell growth in a cell viability assay.

MHH-NB-11 = format: functional, cell-based;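 also: growth inhibition of human MHH-NB-11 cells, read out by a cell viability assay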
Description: SANGER: Inhibition of human MHH-NB-11 cell growth in a cell viability assay.

NCI-H23 = format: functional, cell-based;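 also: cell viability assay measuring growth inhibition of NCI-H23 cells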
Description: SANGER: Inhibition of human NCI-H23 cell growth in a cell viability assay.

U-87 MG = format: functional, cell-based, U-87MG ATCC;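 also: growth inhibition of the cells measured with a viability assay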
Description: SANGER: Inhibition of human U-87-MG cell growth in a cell viability assay.

IA-LM = format: functional, cell-based;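 also: cell viability assay measuring growth inhibition of human IA-LM cells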
Description: SANGER: Inhibition of human IA-LM cell growth in a cell viability assay.

EW-3 = format: functional, cell-based;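 also: cell viability assay read-out, IC50 reflects inhibition of growth of the EW-3 cells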
Description: SANGER: Inhibition of human EW-3 cell growth in a cell viability assay.

MPP-89 = format: functional, cell-based;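 also: growth inhibition of human MPP-89 cells, read out with a cell viability assay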
Description: SANGER: Inhibition of human MPP-89 cell growth in a cell viability assay.

ML-2 = format: functional, cell-based;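 also: growth inhibition of ML-2 cells, measured with a cell viability readout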
Description: SANGER: Inhibition of human ML-2 cell growth in a cell viability assay.

8-MG-BA = format: functional, cell-based;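 also: growth inhibition of 8-MG-BA cells, read out with a cell viability assay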
Description: SANGER: Inhibition of human 8-MG-BA cell growth in a cell viability assay.

A4-Fuk = format: functional, cell-based;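 also: growth inhibition of A4-Fuk cells, read out by a cell viability assay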
Description: SANGER: Inhibition of human A4-Fuk cell growth in a cell viability assay.

HT-144 = format: functional, cell-based
Description: SANGER: Inhibition of human HT-144 cell growth in a cell viability assay.

NCI-H209 = format: functional, cell-based;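 also: growth inhibition of human NCI-H209 cells, measured by a cell viability assay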
Description: SANGER: Inhibition of human NCI-H209 cell growth in a cell viability assay.

TE-8 = format: functional, cell-based;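 also: growth inhibition of TE-8 cells, measured with a cell viability readout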
Description: SANGER: Inhibition of human TE-8 cell growth in a cell viability assay.

NCI-H1581 = format: functional, cell-based;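 also: cell growth inhibition read out by a viability assay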
Description: SANGER: Inhibition of human NCI-H1581 cell growth in a cell viability assay.

A498 = format: functional, cell-based;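 also: growth inhibition of human A498 cells, read out with a cell viability assay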
Description: SANGER: Inhibition of human A498 cell growth in a cell viability assay.

NB13 = format: functional, cell-based;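 also: cell viability readout measuring growth inhibition of human NB13 cells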
Description: SANGER: Inhibition of human NB13 cell growth in a cell viability assay.

HOP-62 = format: functional, cell-based;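 also: cell growth inhibition determined with a viability assay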
Description: SANGER: Inhibition of human HOP-62 cell growth in a cell viability assay.

ACN = format: functional, cell-based;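 also: growth inhibition of the human ACN cell line, read out via cell viability testing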
Description: SANGER: Inhibition of human ACN cell growth in a cell viability assay.

DOHH-2 = format: functional, cell-based;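 also: growth inhibition of human DOHH-2 cells, read out with a cell viability assay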
Description: SANGER: Inhibition of human DOHH-2 cell growth in a cell viability assay.

PSN1 = format: functional, cell-based
Description: SANGER: Inhibition of human PSN1 cell growth in a cell viability assay.

D-502MG = format: functional, cell-based
Description: SANGER: Inhibition of human D-502MG cell growth in a cell viability assay.

LS-411N = format: functional, cell-based
BV-173 = format: functional, cell-based
Description: SANGER: Inhibition of human BV-173 cell growth in a cell viability assay.

SK-LMS-1 = format: functional, cell-based
Description: SANGER: Inhibition of human SK-LMS-1 cell growth in a cell viability assay.

CTB-1 = format: functional, cell-based
Description: SANGER: Inhibition of human CTB-1 cell growth in a cell viability assay.

CCNc1cc(N[C@H]2CC[C@@H](O)CC2)nc(Nc2ccc3c(ccn3Cc3ccccc3)c2)n1
IC50 (ES7): > 5.12 µM | IC50 (NB69): > 5.12 µM | IC50 (OS-RC-2): > 5.12 µM | IC50 (CW-2): > 5.12 µM | IC50 (SJSA-1): > 5.12 µM | IC50 (K5): > 5.12 µM | IC50 (NMC-G1): > 5.12 µM | IC50 (HCE-4): > 5.12 µM | IC50 (BB30-HNC): 4.6 µM | IC50 (BB65-RCC): > 5.12 µM | IC50 (NH-12): > 5.12 µM | IC50 (LU-139): > 5.12 µM | IC50 (TE-1): > 5.12 µM | IC50 (COLO-668): > 5.12 µM | IC50 (CAS-1): > 5.12 µM | IC50 (QIMR-WIL): > 5.12 µM | IC50 (EW-16): > 5.12 µM | IC50 (NCI-H2126): > 5.12 µM | IC50 (LS-123): > 5.12 µM | IC50 (KM12): > 5.12 µM | IC50 (LB2241-RCC): > 5.12 µM | IC50 (HCE-T): > 5.12 µM | IC50 (KGN): > 5.12 µM | IC50 (LC-2-ad): 0.702 µM | IC50 (TE-11): > 5.12 µM | IC50 (SW684): > 5.12 µM | IC50 (MFH-ino): > 5.12 µM | IC50 (LB771-HNC): > 5.12 µM | IC50 (P30-OHK): > 5.12 µM | IC50 (SNU-5): > 5.12 µM | IC50 (EW-1): > 5.12 µM | IC50 (COR-L88): > 5.12 µM | IC50 (EM-2): > 5.12 µM | IC50 (NCI-H226): > 5.12 µM | IC50 (A3-KAW): 1.91 µM | IC50 (COLO-829): > 5.12 µM | IC50 (SW872): > 5.12 µM | IC50 (ALL-PO): > 5.12 µM | IC50 (EW-18): > 5.12 µM | IC50 (SF-539): > 5.12 µM | IC50 (D283 Med): > 5.12 µM | IC50 (LS-1034): > 5.12 µM | IC50 (MHH-NB-11): > 5.12 µM | IC50 (NCI-H23): > 5.12 µM | IC50 (U-87 MG): > 5.12 µM | IC50 (IA-LM): > 5.12 µM | IC50 (EW-3): > 5.12 µM | IC50 (MPP-89): > 5.12 µM | IC50 (ML-2): > 5.12 µM | IC50 (8-MG-BA): > 5.12 µM | IC50 (A4-Fuk): > 5.12 µM | IC50 (HT-144): > 5.12 µM | IC50 (NCI-H209): > 5.12 µM | IC50 (TE-8): > 5.12 µM | IC50 (NCI-H1581): > 5.12 µM | IC50 (A498): > 5.12 µM | IC50 (NB13): > 5.12 µM | IC50 (HOP-62): > 5.12 µM | IC50 (ACN): > 5.12 µM | IC50 (DOHH-2): 3.46 µM | IC50 (PSN1): > 5.12 µM | IC50 (D-502MG): > 5.12 µM | IC50 (LS-411N): > 5.12 µM | IC50 (BV-173): > 5.12 µM | IC50 (SK-LMS-1): > 5.12 µM | IC50 (CTB-1): > 5.12 µM

COc1cc(C)c(Sc2cnc(NC(=O)c3ccc(CNC(C)C(C)(C)C)cc3)s2)cc1C(=O)N1CCN(C(C)=O)CC1 (configuration not stated)
IC50 (ES7): > 10.2 µM | IC50 (NB69): 6.66 µM | IC50 (OS-RC-2): 8.9 µM | IC50 (CW-2): > 10.2 µM | IC50 (SJSA-1): 7.63 µM | IC50 (K5): > 10.2 µM | IC50 (NMC-G1): 7.16 µM | IC50 (HCE-4): > 10.2 µM | IC50 (BB30-HNC): 9.34 µM | IC50 (BB65-RCC): > 10.2 µM | IC50 (NH-12): > 10.2 µM | IC50 (LU-139): > 10.2 µM | IC50 (TE-1): > 10.2 µM | IC50 (COLO-668): > 10.2 µM | IC50 (CAS-1): > 10.2 µM | IC50 (QIMR-WIL): 10.1 µM | IC50 (EW-16): 1.72 µM | IC50 (NCI-H2126): > 10.2 µM | IC50 (LS-123): > 10.2 µM | IC50 (KM12): 2.84 µM | IC50 (LB2241-RCC): > 10.2 µM | IC50 (HCE-T): > 10.2 µM | IC50 (KGN): > 10.2 µM | IC50 (LC-2-ad): 9.39 µM | IC50 (TE-11): > 10.2 µM | IC50 (SW684): > 10.2 µM | IC50 (MFH-ino): 3.59 µM | IC50 (LB771-HNC): > 10.2 µM | IC50 (P30-OHK): > 10.2 µM | IC50 (SNU-5): > 10.2 µM | IC50 (EW-1): 3.11 µM | IC50 (COR-L88): > 10.2 µM | IC50 (EM-2): > 10.2 µM | IC50 (NCI-H226): > 10.2 µM | IC50 (A3-KAW): > 10.2 µM | IC50 (COLO-829): > 10.2 µM | IC50 (SW872): > 10.2 µM | IC50 (ALL-PO): > 10.2 µM | IC50 (EW-18): > 10.2 µM | IC50 (SF-539): > 10.2 µM | IC50 (D283 Med): > 10.2 µM | IC50 (LS-1034): 7.42 µM | IC50 (MHH-NB-11): > 10.2 µM | IC50 (NCI-H23): > 10.2 µM | IC50 (U-87 MG): > 10.2 µM | IC50 (IA-LM): 5.39 µM | IC50 (EW-3): 8.57 µM | IC50 (MPP-89): > 10.2 µM | IC50 (ML-2): 3.81 µM | IC50 (8-MG-BA): > 10.2 µM | IC50 (A4-Fuk): 1.62 µM | IC50 (HT-144): 3.34 µM | IC50 (NCI-H209): > 10.2 µM | IC50 (TE-8): 6.44 µM | IC50 (NCI-H1581): > 10.2 µM | IC50 (A498): > 10.2 µM | IC50 (NB13): > 10.2 µM | IC50 (HOP-62): > 10.2 µM | IC50 (ACN): > 10.2 µM | IC50 (DOHH-2): > 10.2 µM | IC50 (PSN1): 2.51 µM | IC50 (D-502MG): > 10.2 µM | IC50 (LS-411N): 4.34 µM | IC50 (BV-173): > 10.2 µM | IC50 (SK-LMS-1): > 10.2 µM | IC50 (CTB-1): > 10.2 µM
